Test results from US20060078535A1, “Anticancer compounds and methods” (The Regents of the University of Michigan, priority 2004, published 2006).

System: neonatal, human fibroblasts
Test: SU-ECM basement membrane invasion by fibroblasts
Type: cell-based
Settings: with or without serum as stated
Source text: Since, during wound reepithelialization, keratinocytes migrate through the connective tissue of the provisional matrix to “wall off” portions of the wound, as well as through the adjacent stroma, it is not surprising that they are also stimulated to migrate through the matrix of SU-ECM invasion substrates by the PHSRN (SEQ ID NO: 1) sequence. […]
Invasion assays were coded and scored blindly by microscopic examination under phase contrast at 200- and 400-fold magnification. Each cell contacting an SU-ECM was scored for its position relative to the exterior or interior surfaces. […] The minimum viability of the cells in each assay was always ascertained at the time of assay by determining the fraction of spread, adherent cells on the bottom of each well scored.
An invasion frequency is defined as the fraction of cells in contact with basement membranes which were located in their interiors at the time of assay. […] Invasion frequencies were determined multiple times for each cell type assayed. For each type of cell assayed the mean and standard deviation of the invasion frequencies were calculated. […]

Pro-His-Ser-Arg-Asn (PHSRN) was tested, and the “fibroblast invasion of SU-ECM basement membranes” value was “induced with the PHSRN (SEQ ID NO:1) peptide to invade serum-free SU-ECM”.
